According to article PMC4403042, “Atrial-like cardiomyocytes from human pluripotent stem cells are a robust preclinical model for assessing atrial-selective pharmacology” (EMBO Molecular Medicine, 2015):

Legend:
[1] = system: differentiating hESCs; experiment: AP characterization of CMs generated from RA-treated differentiations (patch-clamp); assay type: cell-based, human
Excerpt: To study the electrical phenotype of CMs treated with RA during differentiation, we measured APs of dissociated single cells using the patch-clamp method (Fig3). Representative APs stimulated at 1 Hz are shown in Fig3B. The AP of a CM treated with RA during differentiation (RA) depicts an AP with a fast phase-1 repolarization and a plateau phase with a more negative potential compared to a control (CT) CM (Fig3B).
Spin EBs resulting from control and RA-treated differentiations were dissociated at day 17 to single cells using TrypLE™ Select (Life Technologies) and plated on gelatin-coated coverslips. Electrophysiological measurements were performed 10–14 days after dissociation from intrinsically quiescent single GFP^+ CMs that were able to contract upon field stimulation.
APs and membrane currents from hESC-CMs were recorded with the amphotericin-B-perforated patch-clamp technique at 36 ± 0.2°C using an Axopatch 200B amplifier (Molecular Devices, Sunnyvale, CA, USA). […] AP measurements were low-pass-filtered (cutoff frequency 10 kHz) and digitized at 40 kHz; membrane currents were measured at 1 and 4 kHz, respectively. Capacitance and series resistance were compensated by ≥ 80%, and APs were corrected for the calculated liquid junction potential (Barry & Lynch, [1991]). […]

[2] = system: NKX2-5-eGFP/w hESCs; experiment: Cardiac differentiation of hESCs with RA, flow cytometry for GFP at day 15; assay type: cell-based, human
Excerpt: A cocktail of cytokines (Fig1A) was used to initiate cardiac differentiation in NKX2-5-eGFP/w hESCs as described previously (Ng et al, [2008]; Elliott et al, [2011]). To direct differentiating hESCs toward an atrial phenotype, timing and concentration of treatment with RA were carefully optimized (Supplementary Fig S1A–C). We hypothesized that specification of CM subtypes in vitro occurs post-mesoderm formation and prior to the onset of cardiac progenitor stage. Accordingly, embryoid bodies (EBs) were supplemented with RA from day 4, just after the transient expression of early cardiac mesoderm marker, MESP1, until day 7, a time point at which key transcription factors such as NKX2.5, GATA4 and MEF2C important for commitment and specification of cardiovascular lineages are activated (Supplementary Fig S1A).
Therefore, treatment of differentiating hESCs with 1 μmol/l of RA from day 4 to 7 was considered to be most suitable for driving atrial differentiation. As a control, every experiment included parallel differentiating cultures treated with 0.002% DMSO (the final concentration in RA-treated cultures) from day 4 to 7 (Fig1A).
A transgenic NKX2-5-eGFP/w hESC line that faithfully reports endogenous NKX2.5 expression by GFP was described previously (Elliott et al, [2011]). […]
Gene expression was determined on the HumanHT-12 v4 Expression BeadChip at ServiceXS, Leiden, The Netherlands. […]

`CC1=C(/C=C/C(C)=C/C=C/C(C)=C/C(=O)O)C(C)(C)CCC1` [RA, all-trans retinoic acid] was tested, and the “APAplat of individual cells” value ([1]; RA group, 1 Hz, CT group > 80 mV) was less than 80 mV, the “cells with atrial-like action potential properties” value ([1]; RA treatment group, of 26 cells) was “about 85%” and the “percentage of GFP+ cells at day 15” value ([2]; RA 1 μmol/l day 4 to 7, flow cytometry, control 65%) was 50%. For the same compound, the “effect on cardiac differentiation (percentage of GFP+ cells at day 15)” value ([2]; RA 1–10 nmol/l day 4 to 7) was “enhanced cardiac differentiation”.
